These results are taken from publication PMC8182759, “Cryo-Electron Microscopy of Arabidopsis thaliana Phytochrome A in Its Pr State Reveals Head-to-Head Homodimeric Architecture” (Frontiers in Plant Science, 2021).

The target in data set [1] is T1, AtphyA (Arabidopsis thaliana phytochrome A, full length) (Arabidopsis thaliana, UniProt P14712).
T1 construct: gene PHYA; full length, residues 1-1122, C-terminal hexahistidine tag kept; E. coli BL21(DE3) LOBSTR, plasmid pDG388 co-expressing Synechocystis heme oxygenase and PcyA; homodimer (dimer/monomer mixture at pH 9.3)
T1 sequence (P14712 1-1122): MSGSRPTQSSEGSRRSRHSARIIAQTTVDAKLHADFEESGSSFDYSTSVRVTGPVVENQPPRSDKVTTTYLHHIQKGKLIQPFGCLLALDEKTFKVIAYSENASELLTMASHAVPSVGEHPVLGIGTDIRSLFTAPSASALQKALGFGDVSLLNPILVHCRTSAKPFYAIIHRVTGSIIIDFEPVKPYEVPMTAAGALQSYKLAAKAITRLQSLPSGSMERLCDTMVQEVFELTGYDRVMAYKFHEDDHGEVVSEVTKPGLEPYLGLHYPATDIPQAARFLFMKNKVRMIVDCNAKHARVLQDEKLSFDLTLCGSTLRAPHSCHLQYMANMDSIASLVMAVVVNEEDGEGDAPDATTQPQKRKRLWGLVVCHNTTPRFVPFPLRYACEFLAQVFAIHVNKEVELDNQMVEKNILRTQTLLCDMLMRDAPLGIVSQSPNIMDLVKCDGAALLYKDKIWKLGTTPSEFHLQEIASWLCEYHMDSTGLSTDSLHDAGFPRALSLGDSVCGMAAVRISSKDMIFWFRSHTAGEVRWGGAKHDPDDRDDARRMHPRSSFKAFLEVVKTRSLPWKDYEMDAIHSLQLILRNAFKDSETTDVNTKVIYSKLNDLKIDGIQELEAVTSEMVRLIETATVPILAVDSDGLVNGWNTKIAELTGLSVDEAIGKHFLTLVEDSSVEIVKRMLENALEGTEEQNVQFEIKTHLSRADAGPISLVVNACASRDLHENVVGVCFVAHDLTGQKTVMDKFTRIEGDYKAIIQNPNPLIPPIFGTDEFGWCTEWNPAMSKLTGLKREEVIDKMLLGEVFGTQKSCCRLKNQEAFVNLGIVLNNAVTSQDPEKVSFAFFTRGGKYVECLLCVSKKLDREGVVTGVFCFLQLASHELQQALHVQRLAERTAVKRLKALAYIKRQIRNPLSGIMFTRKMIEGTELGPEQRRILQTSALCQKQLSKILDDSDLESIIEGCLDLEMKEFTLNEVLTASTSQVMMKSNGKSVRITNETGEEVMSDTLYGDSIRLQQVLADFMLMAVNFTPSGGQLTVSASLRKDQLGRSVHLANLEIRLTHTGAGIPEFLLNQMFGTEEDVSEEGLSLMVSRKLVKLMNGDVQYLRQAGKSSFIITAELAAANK
Nature of the data set: zinc-induced bilin fluorescence on denaturing gel; UV/vis absorbance and photoconversion. The format is binding. As to conditions: covalent; bilin attached to a cysteine of the GAF domain; assembled during co-expression in E. coli with heme oxygenase/PcyA; purified at pH 8.0.

Data set [2] deals with the molecule itself. Nature of the data set: cryo-EM structure; single-particle cryo-EM of AtphyA purified at pH 9.3, Pr state (730 nm pre-illumination), 1-1.5 mg/ml, 136,173 particles, refinement with 2-fold symmetry, ~17 Å.

Regarding `C/C=C1/C(=C/c2[nH]c(/C=C3N=C(/C=C4\NC(=O)C(CC)=C4C)C(C)=C\3CCC(=O)O)c(CCC(=O)O)c2C)NC(=O)[C@@H]1C` [phycocyanobilin], the “zinc-induced bilin fluorescence on denaturing gel; UV/vis absorbance and photoco” value in data set [1] is reported as “full-length AtphyA could be obtained with covalently attached PCB, as detected by zinc-induced bilin fluorescence”.

B1: Arabidopsis thaliana phytochrome A (receptor, UniProt P14712 1-1122, looked up)
chain: T1 sequence (P14712 1-1122)
modifications: covalently attached phycocyanobilin (PCB) chromophore
notes: Studied in the Pr state after 730 nm illumination; A plasmid map of pDG388 is in the Supplementary Material; No removal of the His tag is described; also called AtphyA; phyA; source: E. coli BL21(DE3) LOBSTR, purified (Ni-NTA IMAC, SEC), coexpressed with Synechocystis sp. heme oxygenase and PcyA
Consider B1, for which the “stoichiometry N” value in data set [2] is 2.
